Numbered stars: 1 amine (or outer) side, 2 acyl side, 3 side chain; on linkers, the order of the positions; unused ones are H or OH. Bridge positions count the residues as written; N and C are the ends. Square brackets hold non-standard residues; d marks the D form. Peptide text beside a SMILES is read from it. * marks the point of attachment. Isoorotoyl = O=C(c1c[nH]c(=O)[nH]c1=O)*; Phenoxyacetyl = O=C(COc1ccccc1)*; Cysteamide = C(CS[*:3])N[*:1]; X3 = O=C(Cc1c[nH]c2ccccc12)*; 3Amb = NCc1cccc(C(=O)O)c1; 4Amb = NCc1ccc(C(=O)O)cc1; Isovaleryl = CC(C)CC(=O)*; Orn = NCCC[C@H](N)C(=O)O; Mpa = O=C(O)CCS
Target: T1, thrombin (Homo sapiens, UniProt P00734)
T1 construct: consists of two polypeptide chains of 36 (light chain) and 259 amino acid
Experiment: Thrombin inhibition screen of crude macrocycle reactions (residual thrombin activity, fluorogenic substrate Z-Gly-Gly-Arg-AMC)
Type: biochemical
Details: 10 µM macrocycle concentration; for percent residual thrombin activity: crude reactions, Library 1a-l, scaffold AA1-AA2-AA3 combined with 1-16 or '-'; for % thrombin activity, Original screen / % thrombin activity, Repeat screen: macrocycles containing acid 14, crude reaction; for % thrombin activity, Repeat screen: replicate reaction and screen
Protocol: As a proof-of-concept, we screened the macrocycle library for inhibitors against thrombin, which is the central blood coagulation protease and an important therapeutic target. We conducted the screen for thrombin-inhibiting macrocycles in 384-well reaction plates. Briefly, each well contained a unique macrocycle (10 μM), 5 μL of thrombin (2 nM final conc.), and subsequently, 5 µL of a fluorogenic substrate to measure the residual thrombin activity and the extent of protease inhibition.
The assays were performed in 384-well plates using Tris buffer at pH 7.4 (100 mM Tris-Cl, 150 mM NaCl, 10 mM MgCl2, 1 mM CaCl2, 0.1% w/v BSA, 0.01% v/v Triton-X100, and 0.6% v/v DMSO) using thrombin at a final concentration of 2 nM and the fluorogenic substrate Z-Gly-Gly-Arg-AMC at a final concentration of 50 μM. Thrombin (5 μL, 6 nM) in the Tris-Cl buffer described above was added to each peptide using a BioTek MultiFlo microplate dispenser, and incubated for 10 min at room temperature. […] Data was collected and exported using the Tecan Infinite M200 Pro instrument software. […] For the negative controls (20 wells containing DMSO but no macrocycle), an average slope was calculated. The percent of thrombin inhibition was calculated by dividing the slopes and multiplying the results by 100.

Compound	percent residual thrombin activity [%]	% thrombin activity, Original screen [%]	% thrombin activity, Repeat screen [%]
O=C(COc1ccccc1)NCCCC[C@@H]1NC(=O)[C@H]2CCCN(C2)C(=O)CCSSCCNC(=O)[C@H](CO)NC1=O [B4-D1-S/13]	103.519	–	–
O=C(NCCC[C@@H]1NC(=O)[C@H](CO)NC(=O)[C@@H]2CCCN2C(=O)CCSSCCNC1=O)c1c[nH]c(=O)[nH]c1=O [B1-S-D2/11] ([Mpa]PS[Orn](Isoorotoyl)-Cysteamide; disulfide 1-C)	112.339	–	–
Cc1nnsc1C(=O)NCCCC[C@@H]1NC(=O)CCSSCCNC(=O)c2ccc(cc2)CNC(=O)[C@H](CO)NC1=O [D1-S-B3/15]	113.1	–	–
CC[C@H](C)[C@@H]1NC(=O)CCSSCCNC(=O)[C@H](CCCCNC(=O)c2cc(C)on2)NC(=O)c2cccc(c2)CNC1=O [I-B5-D1/3]	104.965	–	–
Cc1nnsc1C(=O)NCCCC[C@@H]1NC(=O)CCSSCCNC(=O)C2(CC2)CNC(=O)[C@H](C(C)C)NC1=O [D1-V-B6/15]	112.935	–	–
O=C1CCSSCCNC(=O)[C@H](Cc2c[nH]c3ccccc23)NC(=O)[C@H](CCCNC(=O)Cc2c[nH]c3ccccc23)NC(=O)C2(CC2)CN1 [B6-D2-W/12]	93.2541	–	–
COc1ccc(C(=O)NCCCC[C@@H]2NC(=O)[C@H](Cc3ccc(O)cc3)NC(=O)C3(CC3)CNC(=O)CCSSCCNC2=O)cn1 [B6-Y-D1/10]	104.034	–	–
CC(C)[C@@H]1NC(=O)[C@H](CCCN)NC(=O)C2(CC2)CNC(=O)CCSSCCNC1=O [B6-D2-V/-]	112.468	–	–
NCCC[C@@H]1NC(=O)CCSSCCNC(=O)c2ccc(cc2)CNC(=O)[C@H](Cc2c[nH]c3ccccc23)NC1=O [D2-W-B3/-] ([Mpa][Orn]W[4Amb]-Cysteamide; disulfide 1-C)	110.008	–	–
CC(C)CC(=O)NCCC[C@@H]1NC(=O)CCSSCCNC(=O)[C@H](C(C)C)NC(=O)[C@H]2CCCN(C2)C1=O [D2-B4-V/8]	110.86	–	–
O=C1CCSSCCNC(=O)[C@H](Cc2c[nH]c3ccccc23)NC(=O)[C@H](CCCNC(=O)c2cnccn2)NC(=O)C2(CC2)CN1 [B6-D2-W/2]	95.9188	–	–
CC(C)CC(=O)NCCCC[C@@H]1NC(=O)[C@@H](C)NC(=O)CCSSCCNC(=O)c2cccc(c2)CNC1=O [a-D1-B5/8] ([Mpa][dA]K(Isovaleryl)[3Amb]-Cysteamide; disulfide 1-C)	99.075	–	–
O=C1CCSSCCNC(=O)[C@@H](Cc2c[nH]c3ccccc23)NC(=O)[C@@H](CNC(=O)c2ccc(Cl)s2)NC(=O)CCN1 [X B2 D4 w]	–	88.8	91.0
CC[C@H](C)[C@@H]1NC(=O)CCNC(=O)[C@H](CCCNC(=O)c2ccco2)NC(=O)CCSSCCNC1=O [D2-B2-I/16]	111.823	–	–
COc1ccc(C(=O)NCCCC[C@@H]2NC(=O)c3cccc(c3)CNC(=O)[C@H](Cc3cnc[nH]3)NC(=O)CCSSCCNC2=O)cn1 [H-B5-D1/10]	98.3606	–	–
O=C1CCSSCCNC(=O)c2ccc(cc2)CNC(=O)[C@H](Cc2c[nH]c3ccccc23)NC(=O)[C@H](CCCNC(=O)c2c[nH]c(=O)[nH]c2=O)N1 [D2-W-B3/11]	121.031	–	–
Cc1nnsc1C(=O)NCCCC[C@@H]1NC(=O)CCSSCCNC(=O)[C@H](CO)NC(=O)c2ccc(cc2)CNC1=O [D1-B3-S/15]	103.115	–	–
CC(C)[C@@H]1NC(=O)[C@H]2CCCN(C2)C(=O)[C@H](CCCNC(=O)COc2ccccc2)NC(=O)CCSSCCNC1=O [D2-B4-V/13]	112.633	–	–
NC(=O)CC[C@@H]1NC(=O)[C@H](CCCCNC(=O)Cc2c[nH]c3ccccc23)NC(=O)[C@@H]2CCCN2C(=O)CCSSCCNC1=O [B1-D1-Q/12] ([Mpa]PK(X3)Q-Cysteamide; disulfide 1-C)	106.242	–	–
O=C(NC[C@H]1NC(=O)[C@@H](CO)NC(=O)[C@H]2CCCN(C2)C(=O)CCSSCCNC1=O)c1ccc(Cl)s1 [X B4 s D4]	–	104.5	106.7
CC(C)C[C@@H]1NC(=O)CCSSCCNC(=O)[C@@H]2CCCN2C(=O)[C@H](CCCCNC(=O)COc2ccccc2)NC1=O [L-D1-B1/13] ([Mpa]LK(Phenoxyacetyl)P-Cysteamide; disulfide 1-C)	112.403	–	–
O=C1CCSSCCNC(=O)[C@H](Cc2c[nH]c3ccccc23)NC(=O)[C@H](CCCNC(=O)COc2ccccc2)NC(=O)C2(CC2)CN1 [B6-D2-W/13]	95.6589	–	–

Reference: paper PMC9250534, “Synthesis and direct assay of large macrocycle diversities by combinatorial late-stage modification at picomole scale” (Nature Communications, 2022)
